Assay results taken from patent US9023356B2, “Treatment method using EGFR antibodies and SRC inhibitors and related formulations” (Ludwig Institute for Cancer Research Ltd, priority 2007, dated 2015).
Read-outs that look alike come from different tables or passages of the source.

Columns and labels:
[1] = tested on: BT474 breast and MKN7 gastric cancer cells in vitro; settings: full text: Activation of erbB2/3 heterodimers by heregulin generated resistance; no in vivo data; cited from earlier work
[2] = tested on: Glioma cell lines in vitro; settings: full text: Resistant glioma expresses IGFR-1 which is further up-regulated by AG1478; effect appears mediated through PI3-K/Akt; single cell line in vitro; cited from earlier work
[3] = tested on: Multiple cell lines in vitro; settings: full text: Sensitivity correlated with wt EGFR number; no in vivo data; cited from earlier work
[4] = tested on: Multiple cell lines in vitro; settings: full text: Sustained signaling through Akt or Erk may cause resistance; no in vivo data; cited from earlier work
[5] = tested on: Patients with NSCLC; settings: full text: A secondary mutation in EGFR kinase causes resistance; cited from earlier work
[6] = tested on: A431 and MDA-468 breast cancer cells in vitro; settings: full text: Sustained signaling through Akt causes resistance. Presence of PTEN increases effectiveness of EGFR therapeutics; no in vivo data; cited from earlier work
[7] = tested on: Multiple cell lines in vitro; settings: full text: Sensitivity correlated with wt EGFR number. Constitutive active MAPK increased resistance; no in vivo data; cited from earlier work
[8] = tested on: Multiple cell lines in vitro and xenografts; settings: full text: More difficult to inhibit the phosphorylation of EGFR in the presence of ErbB2; cited from earlier work
[9] = tested on: Patients with NSCLC; settings: full text: Patients with activating mutations in the EGFR kinase domain more likely to respond; not all patients with mutations respond; cited from earlier work
[10] = tested on: de2-7 EGFR phosphorylation in U87MG glioma cells; test: Immunoblotting of de2-7 EGFR phosphorylation after Src-family kinase inhibitors; format: cell-based; settings: 10 μM, 30 minutes or 24 h, serum starved cells
Description: FIG. 7A-7C. Interaction between de2-7 EGFR and Src. (A) Cells were serum starved overnight prior to treatment with 10 μM PP1 or PP2 or vehicle (DMSO) for 30 minutes or 24 h prior to immunoprecipitation with mAb528, mAb806 or an irrelevant isotype control. Immunoblotting was performed with an antibody specific for Y845 of the EGFR, while total de2-7 EGFR was visualized with the rabbit c-terminal polyclonal antibody. Results shown are representative of four independent experiments. […] Mice were treated with 1 mg mAb 806 three times per week for two weeks (days 18, 20, 22, 25, 27 and 29).
Cells were lysed in cold lysis buffer (30 mM HEPES, 150 mM NaCl, 10 mM NaF, 1% Triton X-100, 200 μM NaO3V, 0.4% H2O2 and the protease inhibitor cocktail set 1 (Calbiochem, San Diego, Calif.) containing 500 μM AEBSF, 150 nM Aprotinin, 1 μM E-64 protease inhibitor, 0.5 mM EDTA and 1 μM Leupeptin, pH 7.4). Lysates were immunoprecipitated with the mAb 806 or 528 and the resultant precipitates analyzed by immunoblotting as described by us in detail (21).
Activation of the wt EGFR leads to the transient activation of Src kinase. In a synergistic manner, activation of Src leads to phosphorylation tyrosine 845 (Y845) on the EGFR, which is not an auto-phosphorylation site rather a target for Src phosphorylation (24). Using an antibody specific to Y845 we examined the phosphorylation of Y845 in the de2-7 EGFR.

[11] = tested on: Patients with colorectal cancer; settings: full text: Response correlated with increase in EGFR copy number; small sample numbers; cited from earlier work
[12] = tested on: Multiple cell lines in vitro and xenografts; settings: full text: Sensitivity correlated with wt EGFR number; cited from earlier work

Which Observation [1] does the source give for Cc1[nH]c2ncnc(Nc3cccc(Cl)c3)c2c1C [CGP59326] here?
The Observation was “Activation of erbB2/3”.

For COc1cc2ncnc(Nc3cccc(Cl)c3)c2cc1OC [AG1478], which Observation [2] is on record?
The Observation was “Resistant glioma”.

Which Observation [3] does the source give for COc1cc2ncnc(Nc3cccc(Br)c3)c2cc1OC [PD153035] here?
The Observation was “Sensitivity correlated”.

What about the Observation [4] of the same molecule?
The Observation was “Sustained signaling”.

For C#Cc1cccc(Nc2ncnc3cc(OCCOC)c(OCCOC)cc23)c1 [OSI-774], which Observation [5] is on record?
The Observation was “A secondary mutation”.

For COc1cc2ncnc(Nc3ccc(F)c(Cl)c3)c2cc1OCCCN1CCOCC1 [ZD1839], which Observation [6] is on record?
The Observation was “Sustained signaling”.

What about the Observation [5] of the same molecule?
Its Observation is “A secondary mutation”.

What about the Observation [7] of the same molecule?
Its Observation is “Sensitivity correlated”.

And the Observation [8]?
Its Observation is “More difficult to inhibit”.

And the Observation [9]?
Its Observation is “Patients with activating”.

What about the Observation [4] of the same molecule?
Its Observation is “Sustained signaling”.

With CC(C)(C)n1nc(-c2ccc(Cl)cc2)c2c(N)ncnc21 [PP2, (4-chlorophenyl)-7-(t-butyl)pyrazolo[3,4-d]-pyrimidine] as the molecule, how does the “Phosphorylation at Y845 of de2-7 EGFR” value [10] read?
The value was “rapidly blocked”.

What about the “autophosphorylation site at Y1173 of de2-7 EGFR” value [10] of the same molecule?
Its value is “relatively unaffected”.

With “ABX: monoclonal antibody directed to the EGFR” as the molecule, how does the Observation [11] read?
Its Observation is “Response correlated”.

B1: EMD72000: EGFR inhibitor listed in Table 1 (antibody, chains of the INN, looked up, V domains shown)
VH: QVQLVQSGAEVKKPGASVKVSCKASGYTFTSHWMHWVRQAPGQGLEWIGEFNPSNGRTNYNEKFKSKATMTVDTSTNTAYMELSSLRSEDTAVYYCASRDYDYDGRYFDYWGQGTLVTVSS
VL: DIQMTQSPSSLSASVGDRVTITCSASSSVTYMYWYQQKPGKAPKLLIYDTSNLASGVPSRFSGSGSGTDYTFTISSLQPEDIATYYCQQWSSHIFTFGQGTKVEIK
For B1, which Observation [12] is on record?
Its Observation is “Sensitivity correlated”.
